Results: the supplement of paper PMC13380429

Assays:
Conditions in all cases: 72 h
Caco-2 [1] = assay: relative viability EC50 (midpoint between 100% and the lowest measured viability); higher = less toxic
HepG2 [2] = assay: as above
Vero E6 [3] = assay: as above
U2OS [4] = assay: as above
Calu-3 [5] = assay: as above
Caco-2 [6] = assay: drug sensitivity score (DSS) for viability; higher = more toxic; extreme values may be limits of the assay
HepG2 [7] = assay: as above
Vero E6 [8] = assay: as above
U2OS [9] = assay: as above
Calu-3 [10] = assay: as above
Caco-2 [11] = assay: cell viability relative to DMSO; higher = less toxic
HepG2 [12] = assay: as above
Vero E6 [13] = assay: as above
U2OS [14] = assay: as above
Calu-3 [15] = assay: as above

Compound	relative viability EC50 (Caco-2 [1]) [µM]	relative viability EC50 (HepG2 [2]) [µM]	relative viability EC50 (Vero E6 [3]) [µM]	relative viability EC50 (U2OS [4]) [µM]	relative viability EC50 (Calu-3 [5]) [µM]	drug sensitivity score (Caco-2 [6])	drug sensitivity score (HepG2 [7])	drug sensitivity score (Vero E6 [8])	drug sensitivity score (U2OS [9])	drug sensitivity score (Calu-3 [10])	cell viability (Caco-2 [11]; 1 nM) [%]	cell viability (Caco-2 [11]; 10 nM) [%]	cell viability (Caco-2 [11]; 100 nM) [%]	cell viability (Caco-2 [11]; 1000 nM) [%]	cell viability (Caco-2 [11]; 10000 nM) [%]	cell viability (HepG2 [12]; 1 nM) [%]	cell viability (HepG2 [12]; 10 nM) [%]	cell viability (HepG2 [12]; 100 nM) [%]	cell viability (HepG2 [12]; 1000 nM) [%]	cell viability (HepG2 [12]; 10000 nM) [%]	cell viability (Vero E6 [13]; 1 nM) [%]	cell viability (Vero E6 [13]; 10 nM) [%]	cell viability (Vero E6 [13]; 100 nM) [%]	cell viability (Vero E6 [13]; 1000 nM) [%]	cell viability (Vero E6 [13]; 10000 nM) [%]	cell viability (U2OS [14]; 1 nM) [%]	cell viability (U2OS [14]; 10 nM) [%]	cell viability (U2OS [14]; 100 nM) [%]	cell viability (U2OS [14]; 1000 nM) [%]	cell viability (U2OS [14]; 10000 nM) [%]	cell viability (Calu-3 [15]; 1 nM) [%]	cell viability (Calu-3 [15]; 10 nM) [%]	cell viability (Calu-3 [15]; 100 nM) [%]	cell viability (Calu-3 [15]; 1000 nM) [%]	cell viability (Calu-3 [15]; 10000 nM) [%]
Cc1[nH]cnc1CN1CCc2c(c3ccccc3n2C)C1=O [alosetron]	> 10	> 10	> 10	> 10	> 10	0	3.7	0	0	0	101	98.7	95.6	104	109	111	93.7	83.9	89.1	94.4	99.3	94.5	93.1	96.5	97	98.2	95.6	104	96.9	99.5	102	93.5	102	91.7	106
CN(C)c1nc(N(C)C)nc(N(C)C)n1 [altretamine]	> 10	> 10	> 10	> 10	> 10	0	0	0	0	0	97.8	100	99.8	106	89.9	97.3	96.7	94.9	96	93.9	104	98.3	95.5	93	101	100	104	96.5	103	97.2	92.7	95.6	111	99.3	102
CCN(CC)C(C)C(=O)c1ccccc1 (stereo not given) [amfepramone]	> 10	> 10	> 10	> 10	> 10	0	0	0	0	0	117	95.9	103	102	128	106	102	100	96.6	101	92.3	102	106	106	86.8	100	95.3	98.1	95.2	98.6	109	85.5	93.6	93.7	103
C[C@@H]1[C@H](O)[C@@H](C)/C=C/C=C/C=C/C=C/C=C/C=C/C=C/[C@H](O[C@@H]2O[C@H](C)[C@@H](O)[C@H](N)[C@@H]2O)C[C@@H]2O[C@](O)(C[C@@H](O)C[C@@H](O)[C@H](O)CC[C@@H](O)C[C@@H](O)CC(=O)O[C@H]1C)C[C@H](O)[C@H]2C(=O)O [amphotericin-b]	> 10	> 10	> 10	> 10	> 10	0	0	0	0	0	106	91.1	108	100	98.6	97.4	102	101	101	101	101	102	103	101	99.6	101	97	101	97.6	101	98.4	105	95.7	103	99.5
CCCNC(C)C(=O)Nc1c(C)csc1C(=O)OC (stereo not given) [articaine]	> 10	> 10	> 10	> 10	> 10	0	0	0	0	0	98.5	96.7	95.2	104	105	97.9	105	110	104	112	93.4	93.1	96.1	97.3	108	96.5	95.8	99.7	92.8	105	94	94.6	100	93.5	106
C[C@H]1[C@H](C)CC[C@]2(C(=O)O)CC[C@]3(C)C(=CC[C@@H]4[C@@]5(C)C[C@@H](O)[C@H](O)[C@@](C)(CO)[C@@H]5CC[C@]43C)[C@H]12 [asiatic-acid]	> 10	> 10	> 10	> 10	> 10	0.4	0	0	0	0	101	104	89.2	94.2	95.6	83.4	80.2	78.6	90.2	88.9	106	111	106	93	105	98.1	105	95.6	104	96.9	98.3	93.2	106	90.6	97.5
CN(C)C(=O)Nc1cccc(-c2ccc(N(C)C)cc2)c1 [atglistatin]	> 10	> 10	> 10	> 10	> 10	0	0	0	0	0	84.3	100	92.2	88.7	104	98.2	97.9	99.4	108	113	99	99.7	98.3	97.6	107	96.4	99.3	97.8	98.5	96.5	111	99.2	90.1	96.6	103
CN1C(=O)COc2c(C(=O)NC3CN4CCC3CC4)cc(Cl)cc21 (stereo not given) [azasetron]	> 10	> 10	> 10	> 10	> 10	0	0	0	0	0	98.4	94.9	96.6	98.7	98.5	91.6	99	87.9	94.5	96.2	102	94.4	91.8	86.2	105	101	91.4	95.6	99	99.2	91.4	93.1	103	110	111
CCCCc1nc(-c2ccc(OCCCN(CC)CC)cc2)cn1-c1ccc(Oc2ccc(Cl)cc2)cc1 [azeliragon]	2.61	2.69	3.13	2.12	3.08	6.3	6.4	5.7	5.3	5.2	101	97	99.4	93.5	4.5	95.1	94.8	90.2	94	0.1	96.2	105	91.8	99.5	0	97.7	97.8	98.9	91	30.4	109	105	99.4	98.9	8.5
CC(C)(CCCCCC(O)CCCCCC(C)(C)C(=O)O)C(=O)O [bempedoic-acid]	> 10	> 10	> 10	> 10	> 10	0	0	0	0	0	98.5	95.6	96.8	96.1	95	102	98.2	107	98.2	102	106	104	98	100	98	97.6	97.2	97.7	100	100	90.2	92.3	87.2	92.1	92.6
O=C(CCCN1CCC(n2c(=O)[nH]c3ccccc32)CC1)c1ccc(F)cc1 [benperidol]	> 10	> 10	> 10	> 10	> 10	0	0	0	0	0	102	99.2	98.1	102	103	103	107	107	107	97.5	105	96.2	98	100	95.9	98.2	108	98.1	106	96.1	101	88.1	82.4	94.4	99.1
CC(COc1ccccc1Cc1ccccc1)N1CCCCC1 (stereo not given) [benproperine]	> 10	> 10	> 10	> 10	> 10	0.3	1.5	0	0	0	90.6	106	96.4	100	83.4	104	109	96.5	85.7	87.9	112	100	103	101	98.1	92.8	96.3	92	102	89.3	94.8	106	89	103	88.4
CC(C)(Oc1ccc(CCNC(=O)c2ccc(Cl)cc2)cc1)C(=O)O [bezafibrate]	> 10	> 10	> 10	> 10	> 10	0	0	0	0	0	102	95.7	96.8	98	94.3	98.1	93.1	91.5	97.4	102	106	105	101	104	93.4	102	97	96.2	94	98.3	110	98.5	108	97	98.4
Brc1ccc(NC2C3CC4CC(C3)CC2C4)cc1 (stereo not given) [bromantan]	> 10	> 10	> 10	> 10	> 10	0	0	0	0	0	104	95.9	104	99.9	92.8	105	100	92	106	94.3	101	100	99.5	108	98.8	102	99.6	101	96.9	101	89.6	90.6	98.3	102	87.9
